In patent US8961970B2, “Combination therapy” (Novartis AG, priority 2012, dated 2015):

Legend:
[1] = tested on: AsPC-1 cells; experiment: Cell proliferation / viability assay (CellTiter-Glo, dose matrix) in AsPC-1 cells; format: cell-based
Protocol: (§1) A cell proliferation assay was performed to investigate the activity of the combination of COMPOUND A and ANTIBODY A on Insulin-like Growth Factor 1 (IGF1)-induced proliferation of the KRAS mutant cell lines Miapaca-2 and AsPC-1. To evaluate the combination effect in a non-biased way, and to identify synergistic effects at different concentrations, the study was conducted using a “dose matrix” scheme (described in detail below).
(§2) COMPOUND A (10 mM) was stored in aliquots at −20° C. ANTIBODY A (0.2 mM in 1% BSA) was stored in aliquots at 4° C. Insulin-like Growth Factor-1 (IGF1; R&D System, Cat #291-G1) was reconstituted at 100 ug/mL in sterile Phosphate Buffered Saline (PBS).
(§3) The KRAS mutant, pancreatic cancer cell lines Miapaca-2 and AsPC-1 were cultured in DMEM medium (ATCC Cat #30-2002) and RPMI-1640 (ATCC Cat #30-2001) plus 10% Fetal Bovine Serum (FBS; Invitrogen Cat #10099-141) as recommended by the supplier. Cells were cultured in T-150 flasks using standard cell culture techniques and split upon reaching 80% confluency. TryPLE Express (Invitrogen #12604-013, no phenal red) was used for all cell dissociation. Cell count and viability were measured using Trypan dye exclusion with a ViCell counter (Beckman-Coulture). Cells were determined to be free of Mycoplasma using a PCR detection method (www.radil.missouri.edu). […]

[2] = tested on: Miapaca-2 cells; experiment: Cell proliferation / viability assay (CellTiter-Glo, dose matrix) in Miapaca-2 cells; format: cell-based
Protocol: as §1, §2, §3

## Cn1cnc2c(F)c(Nc3ccc(Br)cc3F)c(C(=O)NOCCO)cc21 [COMPOUND A, 6-(4-bromo-2-fluorophenylamino)-7-fluoro-3-methyl-3H-benzoimidazole-5-carboxylic acid (2-hydroxyethyoxy)-amide]
[1]; AsPC-1, KRAS mutant pancreatic cancer cell line, 120 hours incubation, presence and absence of IGF1 (100 ng/ml)
  single agent anti-proliferative activity: concentration dependent anti-proliferative activity
[1]; AsPC-1, with versus without IGF1
  effect of addition of IGF1 on single agent activity: slightly dampen
[2]; Miapaca-2, KRAS mutant pancreatic cancer cell line, 120 hours incubation, presence and absence of IGF1 (100 ng/ml)
  single agent anti-proliferative activity: concentration dependent anti-proliferative activity
[2]; Miapaca-2, with versus without IGF1
  effect of addition of IGF1 on single agent activity: slightly dampen
